Measurements from US8952024B2, “Herbicidal pyrimidone derivatives” (E I du Pont de Nemours and Company, priority 2009, dated 2015).

Assays:
Assay type in all cases: in vivo
[1] = test system: large crabgrass (Digitaria sanguinalis); experiment: Test A pre-/postemergence plant response
Outline: (§1)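 Each species was treated preemergence via directed soil spray and postemergence at the one- to two-leaf stage, with compounds formulated in a non-phytotoxic solvent plus surfactant. Visual injury relative to untreated controls was rated after about ten days on a 0–100 scale.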

[2] = test system: velvetleaf (Abutilon theophrasti); experiment: Test A pre-/postemergence plant response
Outline: as §1

[3] = test system: morningglory (Ipomoea spp.); experiment: Test A pre-/postemergence plant response
Outline: as §1

[4] = test system: wheat (Triticum aestivum); experiment: Test A pre-/postemergence plant response
Outline: as §1

[5] = test system: pigweed (Amaranthus retroflexus); experiment: Test A pre-/postemergence plant response
Outline: as §1

[6] = test system: barnyardgrass (Echinochloa crus-galli); experiment: Test A pre-/postemergence plant response
Outline: as §1

corn (Zea mays) = experiment: Test A pre-/postemergence plant response
Outline: as §1

[7] = test system: giant foxtail (Setaria faberii); experiment: Test A pre-/postemergence plant response
Outline: as §1

[8] = test system: ducksalad (Heteranthera limosa); experiment: Test B flooded paddy test; details: for Plant response rating, Flood, Ducksalad: 250 g ai/ha, flooded paddy test, visual rating on 0 to 100 scale (0 no effect, 100 complete control) after 13 to 15 days; for Plant response rating, Ducksalad: Flood (flooded paddy test), 13 to 15 days
Outline: (§2)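 Greenhouse-held for 13 to 15 days, treated pots were compared visually with controls and scored 0–100 (0, no effect). Treatment had been made into paddy water kept at 3 cm above the soil, with plants at the 2-leaf stage.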

rice (Oryza sativa) = experiment: Test B flooded paddy test; details: for Plant response rating, Flood, Rice: 250 g ai/ha, flooded paddy test, visual rating on 0 to 100 scale (0 no effect, 100 complete control) after 13 to 15 days; for Plant response rating, Rice: Flood (flooded paddy test), 13 to 15 days
Outline: as §2

[9] = test system: umbrella sedge (Cyperus difformis); experiment: Test B flooded paddy test; details: for Plant response rating, Flood, Sedge, Umbrella: 250 g ai/ha, flooded paddy test, visual rating on 0 to 100 scale (0 no effect, 100 complete control) after 13 to 15 days; for Plant response rating, Sedge, Umbrella: Flood (flooded paddy test), 13 to 15 days
Outline: as §2

[10] = test system: barnyardgrass (Echinochloa crus-galli); experiment: Test B flooded paddy test; details: for Plant response rating, Flood, Barnyardgrass: 250 g ai/ha, flooded paddy test, visual rating on 0 to 100 scale (0 no effect, 100 complete control) after 13 to 15 days; for Plant response rating, Barnyardgrass: Flood (flooded paddy test), 13 to 15 days
Outline: as §2

[11] = Postemergence, 125 g ai/ha, visual injury, 0 to 100 scale (0 no effect, 100 complete control), approx. ten days
[12] = Postemergence, 500 g ai/ha, 0 to 100 scale, 0 = no effect, 100 = complete control, approx. ten days
[13] = Preemergence, 125 g ai/ha, 0 to 100 scale, 0 = no effect, 100 = complete control
[14] = Preemergence, 500 g ai/ha, visual injury, 0 to 100 scale (0 no effect, 100 complete control), approx. ten days
[15] = 31 g ai/ha, scale of 0 to 100 where 0 is no effect and 100 is complete control
[16] = 62 g ai/ha, scale 0 to 100, 0 is no effect, 100 is complete control
[17] = 125 g ai/ha, scale 0 to 100, 0 is no effect, 100 is complete control
[18] = Postemergence, 125 g ai/ha, 0 to 100 scale where 0 is no effect and 100 is complete control
[19] = 62 g ai/ha, scale of 0 to 100 where 0 is no effect and 100 is complete control
[20] = Flood, 31 g ai/ha, scale 0 to 100 (0 no effect, 100 complete control)

Structure (SMILES): C=CCn1c(-c2ccccc2)ncc(C(=O)C2=C(O)CCCC2=O)c1=O [Compound 23]
- Crabgrass, Large plant response rating [1, 11]: 30
- Plant response rating, Crabgrass, Large [1, 12]: 60
- Plant response rating, Crabgrass, Large [1, 13]: 10
- Plant response rating, Crabgrass, Large [1, 14]: 90
- Velvetleaf plant response rating [2, 11]: 100
- Plant response rating, Velvetleaf [2, 12]: 100
- Plant response rating, Velvetleaf [2, 13]: 40
- Plant response rating, Velvetleaf [2, 14]: 100
- Morningglory plant response rating [3, 11]: 50
- Plant response rating, Morningglory [3, 12]: 100
- Plant response rating, Morningglory [3, 13]: 0
- Plant response rating, Morningglory [3, 14]: 70
- Wheat plant response rating [4, 11]: 0
- Plant response rating, Wheat [4, 12]: 0
- Plant response rating, Wheat [4, 13]: 0
- Plant response rating, Wheat [4, 14]: 0
- Pigweed plant response rating [5, 11]: 80
- Plant response rating, Pigweed [5, 12]: 100
- Plant response rating, Pigweed [5, 13]: 50
- Plant response rating, Pigweed [5, 14]: 70
- Barnyardgrass plant response rating [6, 11]: 10
- Plant response rating, Barnyardgrass [6, 12]: 60
- Plant response rating, Barnyardgrass [6, 13]: 0
- Plant response rating, Barnyardgrass [6, 14]: 70
- Corn plant response rating (corn (Zea mays); [11]): 0
- Plant response rating, Corn (corn (Zea mays); [12]): 0
- Plant response rating, Corn (corn (Zea mays); [13]): 0
- Plant response rating, Corn (corn (Zea mays); [14]): 0
- Foxtail, Giant plant response rating [7, 11]: 10
- Plant response rating, Foxtail, Giant [7, 12]: 50
- Plant response rating, Foxtail, Giant [7, 13]: 0
- Plant response rating, Foxtail, Giant [7, 14]: 20
- Plant response rating, Flood, Ducksalad [8]: 45
- Plant response rating, Ducksalad [8, 15]: 20
- Plant response rating, Ducksalad [8, 16]: 35
- Plant response rating, Ducksalad [8, 17]: 45
- Plant response rating, Flood, Rice (rice (Oryza sativa)): 15
- Plant response rating, Rice (rice (Oryza sativa); [15]): 0
- Plant response rating, Rice (rice (Oryza sativa); [16]): 0
- Plant response rating, Rice (rice (Oryza sativa); [17]): 0
- Plant response rating, Flood, Sedge, Umbrella [9]: 45
- Plant response rating, Sedge, Umbrella [9, 15]: 20
- Plant response rating, Sedge, Umbrella [9, 16]: 30
- Plant response rating, Sedge, Umbrella [9, 17]: 40
- Plant response rating, Flood, Barnyardgrass [10]: 0
- Plant response rating, Barnyardgrass [10, 15]: 0
- Plant response rating, Barnyardgrass [10, 16]: 0
- Plant response rating, Barnyardgrass [10, 17]: 0

Structure (SMILES): O=C1CCCC(O)=C1C(=O)c1cnc(C2CCCCC2)n(-c2ccccc2)c1=O [Compound 106]
- Plant response rating, Crabgrass, Large [1, 18]: 40
- Plant response rating, Crabgrass, Large [1, 12]: 70
- Plant response rating, Crabgrass, Large [1, 13]: 70
- Plant response rating, Crabgrass, Large [1, 14]: 80
- Plant response rating, Velvetleaf [2, 18]: 100
- Plant response rating, Velvetleaf [2, 12]: 100
- Plant response rating, Velvetleaf [2, 13]: 40
- Plant response rating, Velvetleaf [2, 14]: 60
- Plant response rating, Morningglory [3, 18]: 100
- Plant response rating, Morningglory [3, 12]: 100
- Plant response rating, Morningglory [3, 13]: 50
- Plant response rating, Morningglory [3, 14]: 80
- Plant response rating, Wheat [4, 18]: 0
- Plant response rating, Wheat [4, 12]: 0
- Plant response rating, Wheat [4, 13]: 0
- Plant response rating, Wheat [4, 14]: 0
- Plant response rating, Pigweed [5, 18]: 80
- Plant response rating, Pigweed [5, 12]: 100
- Plant response rating, Pigweed [5, 13]: 80
- Plant response rating, Pigweed [5, 14]: 90
- Plant response rating, Barnyardgrass [6, 18]: 10
- Plant response rating, Barnyardgrass [6, 12]: 50
- Plant response rating, Barnyardgrass [6, 13]: 10
- Plant response rating, Barnyardgrass [6, 14]: 50
- Plant response rating, Corn (corn (Zea mays); [18]): 0
- Plant response rating, Corn (corn (Zea mays); [12]): 10
- Plant response rating, Corn (corn (Zea mays); [13]): 0
- Plant response rating, Corn (corn (Zea mays); [14]): 0
- Plant response rating, Foxtail, Giant [7, 18]: 20
- Plant response rating, Foxtail, Giant [7, 12]: 60
- Plant response rating, Foxtail, Giant [7, 13]: 40
- Plant response rating, Foxtail, Giant [7, 14]: 70
- Plant response rating, Flood, Ducksalad [8]: 0
- Plant response rating, Ducksalad [8, 19]: 0
- Plant response rating, Ducksalad [8, 17]: 0
- Ducksalad plant response rating [8, 20]: 0
- Plant response rating, Flood, Rice (rice (Oryza sativa)): 20
- Plant response rating, Rice (rice (Oryza sativa); [19]): 0
- Plant response rating, Rice (rice (Oryza sativa); [17]): 20
- Rice plant response rating (rice (Oryza sativa); [20]): 0
- Plant response rating, Flood, Sedge, Umbrella [9]: 0
- Plant response rating, Sedge, Umbrella [9, 19]: 0
- Plant response rating, Sedge, Umbrella [9, 17]: 0
- Sedge, Umbrella plant response rating [9, 20]: 0
- Plant response rating, Flood, Barnyardgrass [10]: 15
- Plant response rating, Barnyardgrass [10, 19]: 0
- Plant response rating, Barnyardgrass [10, 17]: 0
- Barnyardgrass plant response rating [10, 20]: 0

Structure (SMILES): CCCCn1c(-c2cccc(Br)c2)ncc(C(=O)C2=C(O)CCCC2=O)c1=O [Compound 138]
- Plant response rating, Crabgrass, Large [1, 18]: 70
- Plant response rating, Crabgrass, Large [1, 12]: 90
- Plant response rating, Crabgrass, Large [1, 13]: 40
- Plant response rating, Crabgrass, Large [1, 14]: 70
- Plant response rating, Velvetleaf [2, 18]: 100
- Plant response rating, Velvetleaf [2, 12]: 100
- Plant response rating, Velvetleaf [2, 13]: 20
- Plant response rating, Velvetleaf [2, 14]: 80
- Plant response rating, Morningglory [3, 18]: 50
- Plant response rating, Morningglory [3, 12]: 100
- Plant response rating, Morningglory [3, 13]: 0
- Plant response rating, Morningglory [3, 14]: 0
- Plant response rating, Wheat [4, 18]: 0
- Plant response rating, Wheat [4, 12]: 20
- Plant response rating, Wheat [4, 13]: 0
- Plant response rating, Wheat [4, 14]: 20
- Plant response rating, Pigweed [5, 18]: 100
- Plant response rating, Pigweed [5, 12]: 100
- Plant response rating, Pigweed [5, 13]: 50
- Plant response rating, Pigweed [5, 14]: 90
- Plant response rating, Barnyardgrass [6, 18]: 90
- Plant response rating, Barnyardgrass [6, 12]: 90
- Plant response rating, Barnyardgrass [6, 13]: 20
- Plant response rating, Barnyardgrass [6, 14]: 90
- Plant response rating, Corn (corn (Zea mays); [18]): 20
- Plant response rating, Corn (corn (Zea mays); [12]): 20
- Plant response rating, Corn (corn (Zea mays); [13]): 0
- Plant response rating, Corn (corn (Zea mays); [14]): 20
- Plant response rating, Foxtail, Giant [7, 18]: 60
- Plant response rating, Foxtail, Giant [7, 12]: 90
- Plant response rating, Foxtail, Giant [7, 13]: 30
- Plant response rating, Foxtail, Giant [7, 14]: 70
- Plant response rating, Flood, Ducksalad [8]: 80
- Plant response rating, Ducksalad [8, 19]: 70
- Plant response rating, Flood, Rice (rice (Oryza sativa)): 15
- Plant response rating, Rice (rice (Oryza sativa); [19]): 0
- Plant response rating, Flood, Sedge, Umbrella [9]: 80
- Plant response rating, Sedge, Umbrella [9, 19]: 70
- Plant response rating, Flood, Barnyardgrass [10]: 25
- Plant response rating, Barnyardgrass [10, 19]: 0
